Patent publication US8633167B2, “Method for the protection of trees” (Syngenta Crop Protection LLC, priority 2006, dated 2014)

What was measured:
[1] = test system: pine wood nematode, Bursaphelenchus xylophilis; conditions: cited from earlier work
cerambycids = test: Single-tree protection study (Example 2): cerambycid attacks and larval feeding on standing loblolly pine; type: in vivo; conditions: for Cerambycid Feeding Area: bolts cut after tree mortality or at the end of the trial
Method: Two 20-year-old, recently thinned loblolly pine plantations were selected on land owned by Temple-Inland Forest Products Corporation about 5 km south of Wells (Angelina County), Tex. Trees in one plantation were injected for use in a bolt study (Example 1). Trees in a 0.2 ha section of the second plantation were injected as part of a single-tree protection study (Example 2). A staging area also was set up in the second plantation where bolts from the first plantation were exposed to bark beetles and wood borers.
Loblolly pine, 15-20 cm DBH, were selected in the second plantation in March 2004. Each treatment (the same as those used in Example 1) was injected into four cardinal points about 0.3 m above the ground on each of 6 trees in April (16th-23rd) using the Arborjet Tree IV™ system. After 5 weeks post-injection (May 28), frills were cut with a hatchet into the sapwood between the injection points near the base of the tree. A cellulose sponge was inserted into each cut and loaded with 10 ml of a 4:1 mix of sodium N-methyldithiocarbamate (MS) (Woodfume®; Osmose, Inc., Buffalo, N.Y.) plus dimethyl sulfoxide (DMSO) (Aldrich Chemical) (Roton 1987, Strom et al. 2004). This method reduces resin to near zero in 1-2 weeks. The intent was to stress the tree and make it susceptible to attack by bark beetles without killing it. […]
Three weeks after pheromone deployment (June 28), each tree was evaluated by marking a 30 cm section of bole at a height of 3 m. All visible Ips attacks and cerambycid egg niches were counted within the marked area. The number of trees with fading crowns also was recorded. Thereafter, the trees were evaluated weekly for crown fading. When mortality did occur, the trees were felled and two bolts taken and evaluated for attack success and gallery length as described in Example 1. […] Treatment efficacy was determined by comparing tree survival, beetle attacks and egg gallery length on treated and untreated bolts. As before, data were transformed and analyzed by GLM and the Fisher's Protected LSD test using the Statview statistical program.

Substance: 4″-deoxy-4″-N-methylamino avermectin B1a/B1b [Emamectin]
- duration of protection ([1]; pine, against pine wood nematode and coneworm): more than three years
- efficacy against pine wood nematode ([1]; systemic activity in pine): highly effective
- Cerambycid Feeding Area (cerambycids; bolt height 3 m): 0.0 a
- Cerambycid Feeding Area (cerambycids; bolt height 8 m): 0.0 a
- Mean # of Attacks/0.3 Bole Section at 3 m after 24 days, Cerambycid (cerambycids; standing loblolly pine, after 24 days): 0.8 a
